What was measured:
E. coli = assay: Antibacterial power measurement of first compound (bacterial inhibition rate, broth, absorbance 600 nm); format: cell-based; conditions: Escherichia coli, 0.01 g first compound in 25 ml broth, 3,000 CFU/ml, 35° C. for 16 hours
Proteus mirabilis = assay: as above; format: cell-based; conditions: 0.01 g first compound in 25 ml broth, 3,000 CFU/ml, 35° C. for 16 hours

Compound: CCCCCCCCCC[N+](C)(CCO)CCO [Antibacterial Deodorant Monomer A]
- inhibition of growth at 400 µg/mL (E. coli): 98.9%
- inhibition of growth at 400 µg/mL (Proteus mirabilis): 99.9%

Compound: CCCCCCCC[N+](C)(CCO)CCO [Antibacterial Deodorant Monomer B]
- inhibition of growth at 400 µg/mL (E. coli): 89.3%
- inhibition of growth at 400 µg/mL (Proteus mirabilis): 91.2%

Compound: CCCCCCCCCC[N+](C)(C)CCO [Antibacterial Deodorant Monomer D]
- inhibition of growth at 400 µg/mL (E. coli): 94.4%
- inhibition of growth at 400 µg/mL (Proteus mirabilis): 91.7%

Compound: CCCCCCCCCCCC[N+](C)(C)CCO [Antibacterial Deodorant Monomer E]
- inhibition of growth at 400 µg/mL (E. coli): 96.1%
- inhibition of growth at 400 µg/mL (Proteus mirabilis): 96.9%

Compound: CCCCCCCCCC[N+](C)(C)CCO [Antibacterial Deodorant Monomer F]
- inhibition of growth at 400 µg/mL (E. coli; 16 h): 96.4%
- inhibition of growth at 400 µg/mL (Proteus mirabilis; 16 h): 83.1%

Compound: CCCC[N+](C)(CCO)CCO [Antibacterial Deodorant Monomer G]
- inhibition of growth at 400 µg/mL (E. coli): 15.2%
- inhibition of growth at 400 µg/mL (Proteus mirabilis): 18.3%

Compound: CCCCCCCCCCCC[N+](C)(C)CCCCCCCCCCCC [Didodecyldimethylammonium chloride, reference compound]
- inhibition of growth at 400 µg/mL (E. coli): 90.1%
- inhibition of growth at 400 µg/mL (Proteus mirabilis): 88.5%

Compound: N=C(N)N [Guanidine, reference compound]
- inhibition of growth at 400 µg/mL (E. coli): 96.5%
- inhibition of growth at 400 µg/mL (Proteus mirabilis): 97.2%

Compound: CCCCCCCCCCCCCCCC[N+](C)(C)C [Hexadecyltrimethylammonium chloride, reference compound]
- inhibition of growth at 400 µg/mL (E. coli; 16 h): 92.1%
- inhibition of growth at 400 µg/mL (Proteus mirabilis; 16 h): 93.5%

Compound: CCCCCCCCCC[N+](C)(C)CCCCCCCCO [reference compound]
- inhibition of growth at 400 µg/mL (E. coli): 82.1%
- inhibition of growth at 400 µg/mL (Proteus mirabilis): 85.1%

Compound: CCCCCCCCCCCC[N+](CCO)(CCCCCCCCCC)CCCCCCCCCCCC [reference compound]
- inhibition of growth at 400 µg/mL (E. coli): 79.8%
- inhibition of growth at 400 µg/mL (Proteus mirabilis): 81.3%
